# According to doi:10.1101/2022.10.08.511437v2 (biorxiv, 2023):
# pEC50: −log10 of the molar value.
# What was measured:
# [1] = target: T1, full-length elephant shark MR (Callorhinchus milii, UniProt A0A4W3I5J5); test: cell-based; parameters: species or system HEK293
# T1 sequence (A0A4W3I5J5 1-956): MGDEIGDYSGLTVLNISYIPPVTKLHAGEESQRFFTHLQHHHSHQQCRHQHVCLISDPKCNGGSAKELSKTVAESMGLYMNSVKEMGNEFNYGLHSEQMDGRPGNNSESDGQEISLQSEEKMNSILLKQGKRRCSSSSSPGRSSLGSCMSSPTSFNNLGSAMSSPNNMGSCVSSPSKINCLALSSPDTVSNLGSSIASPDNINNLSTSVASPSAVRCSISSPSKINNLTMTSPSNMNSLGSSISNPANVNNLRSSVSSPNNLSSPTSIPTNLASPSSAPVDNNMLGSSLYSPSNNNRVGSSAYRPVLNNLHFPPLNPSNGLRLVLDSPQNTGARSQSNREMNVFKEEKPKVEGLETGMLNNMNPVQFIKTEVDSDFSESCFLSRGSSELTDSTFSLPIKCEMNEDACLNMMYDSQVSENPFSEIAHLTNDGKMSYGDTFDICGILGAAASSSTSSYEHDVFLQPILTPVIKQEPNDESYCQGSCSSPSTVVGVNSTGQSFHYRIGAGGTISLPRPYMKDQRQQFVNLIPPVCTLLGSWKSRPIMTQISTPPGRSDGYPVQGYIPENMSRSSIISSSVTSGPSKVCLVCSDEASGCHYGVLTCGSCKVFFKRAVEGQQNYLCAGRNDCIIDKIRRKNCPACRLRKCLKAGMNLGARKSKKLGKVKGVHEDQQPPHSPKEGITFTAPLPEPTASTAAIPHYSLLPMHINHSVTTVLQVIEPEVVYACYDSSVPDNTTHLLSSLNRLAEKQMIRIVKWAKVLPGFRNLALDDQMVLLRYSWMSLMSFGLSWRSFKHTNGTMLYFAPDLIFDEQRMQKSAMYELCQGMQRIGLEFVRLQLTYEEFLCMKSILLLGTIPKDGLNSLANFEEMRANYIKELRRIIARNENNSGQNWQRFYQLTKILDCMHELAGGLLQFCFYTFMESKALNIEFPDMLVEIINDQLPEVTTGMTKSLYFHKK
# [2] = target: T2, full-length elephant shark GR (Callorhinchus milii, UniProt V9KGN8); test: cell-based; parameters: species or system HEK293
# T2 sequence (V9KGN8 1-704): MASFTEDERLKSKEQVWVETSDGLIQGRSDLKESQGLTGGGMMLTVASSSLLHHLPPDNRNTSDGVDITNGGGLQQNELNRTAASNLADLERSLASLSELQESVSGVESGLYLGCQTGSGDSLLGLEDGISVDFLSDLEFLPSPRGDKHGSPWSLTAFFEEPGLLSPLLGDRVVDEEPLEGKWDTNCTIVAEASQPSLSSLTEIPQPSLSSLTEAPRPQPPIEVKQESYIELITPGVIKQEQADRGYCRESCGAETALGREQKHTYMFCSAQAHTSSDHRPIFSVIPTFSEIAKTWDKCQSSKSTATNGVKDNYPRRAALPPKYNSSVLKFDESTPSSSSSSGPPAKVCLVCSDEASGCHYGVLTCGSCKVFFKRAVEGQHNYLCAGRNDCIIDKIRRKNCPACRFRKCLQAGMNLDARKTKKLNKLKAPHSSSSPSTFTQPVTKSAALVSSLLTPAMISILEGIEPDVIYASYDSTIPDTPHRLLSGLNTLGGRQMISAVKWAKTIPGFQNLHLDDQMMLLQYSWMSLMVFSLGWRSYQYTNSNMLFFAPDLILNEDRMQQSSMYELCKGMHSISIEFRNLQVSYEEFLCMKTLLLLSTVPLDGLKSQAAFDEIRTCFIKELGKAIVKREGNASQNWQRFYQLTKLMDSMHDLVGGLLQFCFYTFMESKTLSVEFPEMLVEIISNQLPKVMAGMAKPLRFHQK
# [3] = target: T2, full-length elephant shark GR; test: cell-based; parameters: species or system HEK293; remark: listed apart in the source
# [4] = target: T2, full-length elephant shark GR; test: luciferase reporter transactivation in HEK293 cells; type: cell-based
SMILES,pEC50 [1],pEC50 [2],pEC50 [3],pEC50 [4]
C[C@]12CCC(=O)C=C1CC[C@@H]1[C@@H]2[C@@H](O)C[C@@]2(C)[C@H]1CC[C@]2(O)C(=O)CO [cortisol],8.62,,,
C[C@]12CC[C@H]3[C@@H](CCC4=CC(=O)CC[C@@]43C)[C@@H]1CC[C@@H]2C(=O)CO [11-deoxycorticosterone],,7.96,7.95,

# The remaining compounds from weak to strong by pEC50 [1], led by results:
pEC50 [1],pEC50 [2],pEC50 [3],pEC50 [4],SMILES
9.00,,,,C[C@]12C[C@H](O)[C@H]3[C@@H](CCC4=CC(=O)CC[C@@]43C)[C@@H]1CC[C@@H]2C(=O)CO [corticosterone]
9.70,,,6.54,C[C@]12CCC(=O)C=C1CC[C@@H]1[C@@H]2CC[C@@]2(C)[C@H]1CC[C@]2(O)C(=O)CO [11-deoxycortisol]
10.10,,,,C[C@]12CCC(=O)C=C1CC[C@@H]1[C@@H]2[C@@H](O)C[C@]2(C=O)[C@@H](C(=O)CO)CC[C@@H]12 [aldosterone]
